{
  "source": "patent US5082943A",
  "about": "“Novel imidazole derivatives” (Nippon Chemiphar Co., Ltd., priority 1988, dated 1992)",
  "key": {"[1]": {"system": "secretion of gastric acid", "assay": "Inhibitory action against the secretion of gastric acid (Test II), Heidenhain pouch dogs, histamine stimulated", "assay_type": "in vivo, male beagle dogs", "details": "Canis lupus familiaris, Heidenhain pouch dog, histamine 160 ug/kg/hr, intravenous, read-out: Suppresive action on secretion of gastric acid (%)", "method": "Heidenhain pouch dogs produced from male beagle dogs were fasted. To the dogs were then administered intarvenously histamine hydrochloride (gastric juice secretion inducing agent) continuously at a dose of 160 ug/kg/hr. The gastric juice was collected at an interval of 15 min. to measure the amount of gastric juice and acid output to determine an acid secretion amount (mEq/15 min).\nThe test compound was intravenously administered to the dogs at one hour after the initiation of histamine administration.\nThe inhibitory action was determined by comparing the acid secretion amount, with the corresponding amount of a control dog prepared in the same manner except that a vehicle alone was administered."}, "H^+ +K^+ ATPase [2]": {"biological_target": "T1, H^+ +K^+ ATPase (Sus scrofa, UniProt P19156)", "T1 construct": "Gastric acid secretory cells of a pig gastric mucosa were isolated; from tissue; host or cells: pig gastric mucosa, vesicles from gastric acid secretory cells (Ficoll density gradient)", "T1 sequence (P19156 2-1034 limits assumed)": "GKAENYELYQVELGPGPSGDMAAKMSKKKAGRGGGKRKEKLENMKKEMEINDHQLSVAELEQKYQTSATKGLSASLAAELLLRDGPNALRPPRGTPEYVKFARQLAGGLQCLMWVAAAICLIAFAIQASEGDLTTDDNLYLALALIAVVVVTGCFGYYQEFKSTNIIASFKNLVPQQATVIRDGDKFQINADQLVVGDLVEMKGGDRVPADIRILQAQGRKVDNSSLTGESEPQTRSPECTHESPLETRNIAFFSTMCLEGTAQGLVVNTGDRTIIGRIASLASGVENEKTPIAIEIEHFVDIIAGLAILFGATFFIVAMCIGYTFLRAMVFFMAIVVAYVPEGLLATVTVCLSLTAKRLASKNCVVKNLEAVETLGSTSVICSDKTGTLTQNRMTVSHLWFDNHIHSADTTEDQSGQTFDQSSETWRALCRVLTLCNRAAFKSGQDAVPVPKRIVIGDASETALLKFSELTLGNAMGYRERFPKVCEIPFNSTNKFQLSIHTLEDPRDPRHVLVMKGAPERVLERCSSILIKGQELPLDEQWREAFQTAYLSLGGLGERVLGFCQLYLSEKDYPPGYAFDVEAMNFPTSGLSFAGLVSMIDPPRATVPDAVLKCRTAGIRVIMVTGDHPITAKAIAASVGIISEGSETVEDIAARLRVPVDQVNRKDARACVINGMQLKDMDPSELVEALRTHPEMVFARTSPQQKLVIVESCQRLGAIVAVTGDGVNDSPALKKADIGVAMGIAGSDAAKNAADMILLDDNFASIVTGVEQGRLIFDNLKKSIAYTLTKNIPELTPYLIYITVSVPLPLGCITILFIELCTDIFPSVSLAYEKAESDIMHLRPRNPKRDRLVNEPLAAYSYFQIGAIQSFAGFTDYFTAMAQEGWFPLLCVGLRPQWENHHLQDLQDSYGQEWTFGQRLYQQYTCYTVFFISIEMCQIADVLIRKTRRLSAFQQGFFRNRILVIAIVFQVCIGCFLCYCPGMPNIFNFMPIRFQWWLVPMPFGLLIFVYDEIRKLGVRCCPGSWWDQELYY", "T1 sequence (P18434 whole entry partner)": "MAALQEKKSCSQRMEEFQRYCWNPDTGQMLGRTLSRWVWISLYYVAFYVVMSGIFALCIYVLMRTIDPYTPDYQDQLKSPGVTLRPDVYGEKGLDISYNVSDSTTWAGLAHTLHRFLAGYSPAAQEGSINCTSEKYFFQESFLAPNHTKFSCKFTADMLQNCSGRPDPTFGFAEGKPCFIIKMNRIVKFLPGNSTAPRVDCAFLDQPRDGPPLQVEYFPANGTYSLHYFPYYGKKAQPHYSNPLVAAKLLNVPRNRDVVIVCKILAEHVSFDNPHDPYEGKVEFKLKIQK", "assay": "H+ + K+ ATPase inhibitory effects (b) pig gastric mucosa", "assay_type": "biochemical", "details": "pig gastric mucosa vesicle; incubated 37° C., 30 min, pH 5.5; read-out: H+ + K+ ATPase inhibitory action (IC50)", "method": "Gastric acid secretory cells of a pig gastric mucosa were isolated in the same manner as in the test for rabbit gastric mucosa. A vesicle containing H^+ +K^+ ATPase was prepared by centrifuging the cells in Ficoll of discontinuous density gradient. The enzyme and each test compound were incubated at 37° C. for 30 min. in a solution which contained 2 mM of a bisTRIS-acetate buffer (pH 5.5). To the resulting mixture were added a solution of 37.5 mM of bisTRIS-acetate buffer solution (pH 7.4), 2 mM of magnesium chloride, 2 mM of ATP and 5 mM of potassium chloride, and the mixture was then heated to 37° C. for 10 min. for performing a reaction. The reaction was terminated by addition of 5% trichloroacetic acid solution, and an inorganic phosphorus liberated was quantitatively measured by Fiske-Subbarow method. The ATPase activity was determined from the obtained inorganic phosphorus value.\n(§1) The above procedure was repeated except for not using potassium chloride to determine an ATPase activity in the absence of potassium chloride.\nThe desired […] ATPase activity was calculated by subtracting the ATPase activity value determined in the absence of KCl from the ATPase activity value determined in the presence of KCl."}, "[3]": {"system": "secretion of gastric acid", "assay": "Inhibitory action against the secretion of gastric acid (Test I), pylorus ligated rats", "assay_type": "in vivo, Male Donryu rats", "details": "rat, pylorus ligation, intraduodenal, 4 hours, acid output vs control", "method": "Male Donryu rats having a body weight of 200 to 250 g were fasted (while allowing free access to water) for 24 hrs. in accordance with the conventional method [Shay, H. et al, Gastroenterology, 5, 43-61 (1945)]. Under ether anesthesia the pylorus was ligated and each test compound was administered intraduodenally. Four hours later, each rat was killed and the stomach was removed to collect the gastric juice. The inhibitory action was determined by comparing the acid output which was determined by titration to pH 7.0 with 0.1-N NaOH by means of an automatic titrator, with the corresponding value of control rat prepared in the same manner except that a vehicle alone was administered."}, "H^+ +K^+ ATPase [4]": {"biological_target": "T2, H^+ +K^+ ATPase (Oryctolagus cuniculus, UniProt P27112)", "T2 construct": "gastric acid secretory cells of a rabbit gastric mucosa were isolated; from tissue; host or cells: rabbit gastric mucosa, vesicles from gastric acid secretory cells (Ficoll density gradient)", "T2 sequence (P27112 2-1035 limits assumed)": "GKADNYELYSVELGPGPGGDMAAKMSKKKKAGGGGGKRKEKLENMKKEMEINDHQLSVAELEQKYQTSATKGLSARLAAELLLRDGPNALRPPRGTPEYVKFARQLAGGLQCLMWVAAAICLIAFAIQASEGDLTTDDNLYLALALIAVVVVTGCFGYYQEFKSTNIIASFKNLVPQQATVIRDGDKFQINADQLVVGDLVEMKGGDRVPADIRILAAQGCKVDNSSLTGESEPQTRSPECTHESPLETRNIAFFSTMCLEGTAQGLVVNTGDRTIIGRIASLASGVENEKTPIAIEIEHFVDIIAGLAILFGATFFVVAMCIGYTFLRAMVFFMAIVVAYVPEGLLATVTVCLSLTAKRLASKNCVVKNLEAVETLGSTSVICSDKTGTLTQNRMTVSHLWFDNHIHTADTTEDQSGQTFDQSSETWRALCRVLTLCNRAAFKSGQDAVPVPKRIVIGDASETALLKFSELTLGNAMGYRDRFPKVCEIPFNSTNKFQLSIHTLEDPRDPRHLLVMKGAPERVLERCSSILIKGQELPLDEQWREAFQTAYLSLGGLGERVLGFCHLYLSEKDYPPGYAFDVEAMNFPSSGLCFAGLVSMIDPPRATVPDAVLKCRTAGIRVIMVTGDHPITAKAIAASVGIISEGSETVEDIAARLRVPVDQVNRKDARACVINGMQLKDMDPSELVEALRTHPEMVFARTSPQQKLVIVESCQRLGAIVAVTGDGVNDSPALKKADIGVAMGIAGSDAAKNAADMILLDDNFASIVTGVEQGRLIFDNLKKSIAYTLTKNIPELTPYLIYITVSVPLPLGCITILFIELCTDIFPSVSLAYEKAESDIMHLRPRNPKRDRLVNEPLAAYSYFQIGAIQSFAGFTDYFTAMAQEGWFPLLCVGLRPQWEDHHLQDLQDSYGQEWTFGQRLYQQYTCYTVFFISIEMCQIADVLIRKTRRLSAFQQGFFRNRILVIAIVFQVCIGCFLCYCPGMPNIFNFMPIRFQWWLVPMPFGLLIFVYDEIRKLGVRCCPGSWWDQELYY", "T2 sequence (P18597 whole entry partner)": "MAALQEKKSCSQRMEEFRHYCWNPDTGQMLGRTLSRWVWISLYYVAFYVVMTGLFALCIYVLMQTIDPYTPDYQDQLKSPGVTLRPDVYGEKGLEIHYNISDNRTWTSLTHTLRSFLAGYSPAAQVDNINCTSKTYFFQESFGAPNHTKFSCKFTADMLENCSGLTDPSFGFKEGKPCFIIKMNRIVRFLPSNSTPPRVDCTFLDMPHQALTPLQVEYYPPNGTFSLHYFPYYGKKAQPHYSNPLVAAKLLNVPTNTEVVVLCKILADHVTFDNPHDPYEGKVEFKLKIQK", "assay": "H+ + K+ ATPase inhibitory effects (a) rabbit gastric mucosa", "assay_type": "biochemical", "details": "rabbit gastric mucosa vesicle; 2×10^-4 M test compound, pH 6.0, 25 min preincubation; read-out: H+ + K+ ATPase inhibitory action (%)", "method": "Following the method of Forte et al (J. Applied Physiol., 32, 714-717 (1972)), gastric acid secretory cells of a rabbit gastric mucosa were isolated. A vesicle containing H^+ +K^+ ATPase was prepared by centrifuging the cells in Ficoll of discontinuous density gradient. After the enzyme was incubated at room temperature for 25 min. in 0.5 ml of a solution which contained 5 mM of an imidazole buffer (pH 6.0) and 2×10^-4 M of each test compound, the mixture was heated to 37° C. The mixture was then allowed to stand for further 5 min. To the mixture was added 0.5 ml of a solution which contained 4 mM of magnesium chloride, 80 mM of an imidazole buffer (pH 7.4), 20 mM of potassium chloride and 4 mM of ATP. The resulting mixture was reacted at 37° C. for 15 min. and 1 ml of a 24% trichloroacetic acid was then added to terminate the reaction. The inorganic phosphorus liberated was quantitatively determined by the method proposed by Taussky and Shorr (J. Biol. Chem., 202, […] (1953)). The ATPase activity was determined from the obtained inorganic phosphorus value.\nas §1\nThe desired K^+ -dependent ATPase activity was calculated by subtracting the ATPase activity value determined in the absence of KCl from the ATPase activity value determined in the presence of KC1."}, "rats": {"system": "rats", "assay": "Acute toxicity test, rats", "assay_type": "in vivo", "details": "oral, 45 mg/kg/day for two weeks", "method": "(§2) 2-[(2-Isobutylamino)benzylsulfinyl]imidazole (Example No. 10) was orally administered to rats and beagle dogs at a dose of 45 mg/kg/day for two weeks."}, "beagle dogs": {"system": "beagle dogs", "assay": "Acute toxicity test, beagle dogs", "assay_type": "in vivo", "details": "oral, 45 mg/kg/day for two weeks", "method": "as §2"}},
  "data": [
    {"smiles": "[O-][S+](Cc1ccccc1NCc1ccccc1)c1ncc[nH]1", "note": "(stereo not shown) [Example No. 27, 2-[(2-benzylamino)benzylsulfinyl]imidazole]", "values": [
      {"measurement": "inhibition in vivo at 3 mg/kg", "setting": "[1]", "value": 57, "unit": "%"}
    ]},
    {"smiles": "CNc1ccccc1C[S+]([O-])c1nc(C)c[nH]1", "note": "(stereo not shown) [Example No. 37, 4-methyl-2-[(2-methylamino)benzylsulfinyl]imidazole]", "values": [
      {"measurement": "inhibition in vivo at 3 mg/kg", "setting": "[1]", "value": 50, "unit": "%"}
    ]},
    {"smiles": "CNc1ccccc1C[S+]([O-])c1ncc[nH]1", "note": "(stereo not shown) [Example No. 8, 2-(2-methylaminobenzylsulfinyl)imidazole]", "values": [
      {"measurement": "IC50", "setting": "H^+ +K^+ ATPase [2]", "value": 2.8, "unit": "µM"}
    ]},
    {"smiles": "CCNc1ccccc1C[S+]([O-])c1ncc[nH]1", "note": "(stereo not shown) [Example No. 25, 2-[(2-ethylamino)benzylsulfinyl]imidazole]", "values": [
      {"measurement": "inhibition in vivo at 3 mg/kg", "setting": "[1]", "value": 80, "unit": "%"},
      {"measurement": "Suppresive action on secretion of gastric acid (%)", "setting": "[3]; 10 mg/kg", "value": 74.0, "unit": "%"},
      {"measurement": "Suppresive action on secretion of gastric acid (%)", "setting": "[3]; 30 mg/kg", "value": 93.3, "unit": "%"},
      {"measurement": "inhibition at 200 µM", "setting": "H^+ +K^+ ATPase [4]", "value": 87.5, "unit": "%"}
    ]},
    {"smiles": "CNc1cccc(C)c1C[S+]([O-])c1ncc[nH]1", "note": "(stereo not shown) [Example No. 33, 2-[(2-methyl-6-methylamino)benzylsulfinyl]imidazole]", "values": [
      {"measurement": "inhibition in vivo at 1 mg/kg", "setting": "[1]", "value": 70, "unit": "%"},
      {"measurement": "Suppresive action on secretion of gastric acid (%)", "setting": "[3]; 10 mg/kg", "value": 92.9, "unit": "%"},
      {"measurement": "Suppresive action on secretion of gastric acid (%)", "setting": "[3]; 30 mg/kg", "value": 91.4, "unit": "%"}
    ]},
    {"smiles": "Cc1cccc(NCC(C)C)c1C[S+]([O-])c1ncc[nH]1", "note": "(stereo not shown) [Example No. 45, 2-[(2-isobutylamino-6-methyl)benzylsulfinyl]imidazole]", "values": [
      {"measurement": "inhibition in vivo at 1 mg/kg", "setting": "[1]", "value": 82, "unit": "%"},
      {"measurement": "Suppresive action on secretion of gastric acid (%)", "setting": "[3]; 10 mg/kg", "value": 86.8, "unit": "%"},
      {"measurement": "Suppresive action on secretion of gastric acid (%)", "setting": "[3]; 30 mg/kg", "value": 90.3, "unit": "%"}
    ]},
    {"smiles": "Cc1ccc(C[S+]([O-])c2ncc[nH]2)c(NCC(C)C)c1", "note": "(stereo not shown) [Example No. 47, 2-[(2-isobutylamino-4-methyl)benzylsulfinyl]imidazole]", "values": [
      {"measurement": "inhibition in vivo at 1 mg/kg", "setting": "[1]", "value": 87, "unit": "%"}
    ]},
    {"smiles": "CC(C)Nc1ccccc1C[S+]([O-])c1ncc[nH]1", "note": "(stereo not shown) [Example No. 23, 2-[(2-isopropylamino)benzylsulfinyl]imidazole]", "values": [
      {"measurement": "inhibition in vivo at 3 mg/kg", "setting": "[1]", "value": 66, "unit": "%"}
    ]},
    {"smiles": "CNc1ccc(C)cc1C[S+]([O-])c1ncc[nH]1", "note": "(stereo not shown) [Example No. 14, 2-[(5-methyl-2-methylamino)benzylsulfinyl]imidazole]", "values": [
      {"measurement": "inhibition in vivo at 3 mg/kg", "setting": "[1]", "value": 97, "unit": "%"},
      {"measurement": "Suppresive action on secretion of gastric acid (%)", "setting": "[3]; 10 mg/kg", "value": 82.2, "unit": "%"},
      {"measurement": "Suppresive action on secretion of gastric acid (%)", "setting": "[3]; 30 mg/kg", "value": 98.6, "unit": "%"},
      {"measurement": "inhibition at 200 µM", "setting": "H^+ +K^+ ATPase [4]", "value": 90.8, "unit": "%"}
    ]},
    {"smiles": "COc1ccc(NCC(C)C)c(C[S+]([O-])c2ncc[nH]2)c1", "note": "(stereo not shown) [Example No. 29, 2-[(2-isobutylamino-5-methoxy)benzylsulfinyl]imidazole]", "values": [
      {"measurement": "inhibition in vivo at 1 mg/kg", "setting": "[1]", "value": 30, "unit": "%"},
      {"measurement": "inhibition in vivo at 3 mg/kg", "setting": "[1]", "value": 81, "unit": "%"},
      {"measurement": "Suppresive action on secretion of gastric acid (%)", "setting": "[3]; 10 mg/kg", "value": 30.8, "unit": "%"},
      {"measurement": "Suppresive action on secretion of gastric acid (%)", "setting": "[3]; 30 mg/kg", "value": 89.0, "unit": "%"}
    ]},
    {"smiles": "COc1cccc(NCC(C)C)c1C[S+]([O-])c1ncc[nH]1", "note": "(stereo not shown) [Example No. 41, 2-[(2-isobutylamino-6-methoxy)benzylsulfinyl]imidazole]", "values": [
      {"measurement": "inhibition in vivo at 1 mg/kg", "setting": "[1]", "value": 66, "unit": "%"},
      {"measurement": "inhibition in vivo at 3 mg/kg", "setting": "[1]", "value": 97, "unit": "%"}
    ]},
    {"smiles": "CC(C)CNc1ccccc1CSc1ncc[nH]1", "note": "[Example No. 9, 2-[(2-isobutylamino)benzylthio]imidazole]", "values": [
      {"measurement": "inhibition in vivo at 3 mg/kg", "setting": "[1]", "value": 11, "unit": "%"}
    ]},
    {"smiles": "CNc1ccccc1C[S+]([O-])c1nc2c([nH]1)CCCC2", "note": "(stereo not shown) [Example No. 2, 2-(2-methylaminobenzylsulfinyl)-4,5,6,7-tetrahydro-1H-benzimidazole]", "values": [
      {"measurement": "inhibition in vivo at 3 mg/kg", "setting": "[1]", "value": 53, "unit": "%"},
      {"measurement": "IC50", "setting": "H^+ +K^+ ATPase [2]", "value": 1.8, "unit": "µM"}
    ]},
    {"smiles": "CC(C)CNc1ccccc1C[S+]([O-])c1ncc[nH]1", "note": "(stereo not shown) [Example No. 10, 2-[(2-isobutylamino)benzylsulfinyl]imidazole]", "values": [
      {"measurement": "inhibition in vivo at 3 mg/kg", "setting": "[1]", "value": 81, "unit": "%"},
      {"measurement": "Suppresive action on secretion of gastric acid (%)", "setting": "[3]; 10 mg/kg", "value": 56.2, "unit": "%"},
      {"measurement": "Suppresive action on secretion of gastric acid (%)", "setting": "[3]; 30 mg/kg", "value": 87.0, "unit": "%"},
      {"measurement": "Acute toxicity: noticeable change", "setting": "rats", "value": "no noticeable change"},
      {"measurement": "Acute toxicity: noticeable change", "setting": "beagle dogs", "value": "no noticeable change"},
      {"measurement": "inhibition at 200 µM", "setting": "H^+ +K^+ ATPase [4]", "value": 97.2, "unit": "%"}
    ]}
  ]
}
